Experimental data taken from PMC11240139, “Exploring the antitumor potential of novel quinoline derivatives via tubulin polymerization inhibition in breast cancer; design, synthesis and molecular docking” (RSC Advances, 2024).

How the values were obtained:
SK-OV-3 (ovarian cancer) = assay: NCI-60 SRB cytotoxicity screen; format: cell-based; conditions: Homo sapiens; SK-OV-3, single dose 10 μM; read-out: growth inhibition (GI%)
OVCAR-8 (ovarian cancer) = assay: NCI-60 SRB cytotoxicity screen; format: cell-based; conditions: Homo sapiens; OVCAR-8, single dose 10 μM; read-out: growth inhibition (GI%)
SN12C (renal cancer) = assay: NCI-60 SRB cytotoxicity screen; format: cell-based; conditions: Homo sapiens, single dose 10 μM, read-out: growth inhibition (GI%)
[1] = test system: NCI-H226 (non-small cell lung cancer); assay: NCI-60 SRB cytotoxicity screen; format: cell-based; conditions: Homo sapiens; NCI-H226, single dose 10 μM; read-out: growth inhibition (GI%)
MALME-3M (melanoma) = assay: NCI-60 SRB cytotoxicity screen; format: cell-based; conditions: Homo sapiens, single dose 10 μM, read-out: growth inhibition (GI%)
CAKI-1 (renal cancer) = assay: NCI-60 SRB cytotoxicity screen; format: cell-based; conditions: Homo sapiens; CAKI-1, single dose 10 μM; read-out: growth inhibition (GI%)
SF-295 (CNS cancer) = assay: NCI-60 SRB cytotoxicity screen; format: cell-based; conditions: Homo sapiens; SF-295, single dose 10 μM; read-out: growth inhibition (GI%)
ACHN (renal cancer) = assay: NCI-60 SRB cytotoxicity screen; format: cell-based; conditions: Homo sapiens, single dose 10 μM, read-out: growth inhibition (GI%)
HCT-15 (colon cancer) = assay: NCI-60 SRB cytotoxicity screen; format: cell-based; conditions: Homo sapiens; HCT-15, single dose 10 μM; read-out: growth inhibition (GI%)
U251 (CNS cancer) = assay: NCI-60 SRB cytotoxicity screen; format: cell-based; conditions: Homo sapiens, U-251; U251, single dose 10 μM; read-out: growth inhibition (GI%)
786-0 (renal cancer) = assay: NCI-60 SRB cytotoxicity screen; format: cell-based; conditions: Homo sapiens; 786-0, single dose 10 μM; read-out: growth inhibition (GI%)
[2] = test system: NCI-H322M (non-small cell lung cancer); assay: NCI-60 SRB cytotoxicity screen; format: cell-based; conditions: Homo sapiens, single dose 10 μM, read-out: growth inhibition (GI%)
SW-620 (colon cancer) = assay: NCI-60 SRB cytotoxicity screen; format: cell-based; conditions: Homo sapiens; SW-620, single dose 10 μM; read-out: growth inhibition (GI%)
UACC-257 (melanoma) = assay: NCI-60 SRB cytotoxicity screen; format: cell-based; conditions: Homo sapiens; UACC-257, single dose 10 μM; read-out: growth inhibition (GI%)
SK-MEL-2 (melanoma) = assay: NCI-60 SRB cytotoxicity screen; format: cell-based; conditions: Homo sapiens; SK-MEL-2, single dose 10 μM; read-out: growth inhibition (GI%)
TK-10 (renal cancer) = assay: NCI-60 SRB cytotoxicity screen; format: cell-based; conditions: Homo sapiens; TK-10, single dose 10 μM; read-out: growth inhibition (GI%)
OVCAR-5 (ovarian cancer) = assay: NCI-60 SRB cytotoxicity screen; format: cell-based; conditions: Homo sapiens; OVCAR-5, single dose 10 μM; read-out: growth inhibition (GI%)
SNB-75 (CNS cancer) = assay: NCI-60 SRB cytotoxicity screen; format: cell-based; conditions: Homo sapiens, SNB-75, SNB-75, single dose 10 μM; read-out: growth inhibition (GI%)
[3] = test system: MDA-MB-231/ATCC (breast cancer); assay: NCI-60 SRB cytotoxicity screen; format: cell-based; conditions: Homo sapiens, MDA-MB-231, read-out: growth inhibition (GI%);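 note: growth inhibition in percent at a single 10 µM dose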
LOX IMVI (melanoma) = assay: NCI-60 SRB cytotoxicity screen; format: cell-based; conditions: Homo sapiens, single dose 10 μM, read-out: growth inhibition (GI%)
CCRF-CEM (leukemia) = assay: NCI-60 SRB cytotoxicity screen; format: cell-based; conditions: Homo sapiens, single dose 10 μM, read-out: growth inhibition (GI%)
[4] = test system: NCI-H460 (non-small cell lung cancer); assay: NCI-60 SRB cytotoxicity screen; format: cell-based; conditions: Homo sapiens; NCI-H460, single dose 10 μM; read-out: growth inhibition (GI%)
M14 (melanoma) = assay: NCI-60 SRB cytotoxicity screen; format: cell-based; conditions: Homo sapiens; M14, single dose 10 μM; read-out: growth inhibition (GI%)
HT29 (colon cancer) = assay: NCI-60 SRB cytotoxicity screen; format: cell-based; conditions: Homo sapiens, HT-29; HT29, single dose 10 μM; read-out: growth inhibition (GI%)
[5] = test system: EKVX (non-small cell lung cancer); assay: NCI-60 SRB cytotoxicity screen; format: cell-based; conditions: Homo sapiens, single dose 10 μM, read-out: growth inhibition (GI%)
[6] = test system: HOP-92 (non-small cell lung cancer); assay: NCI-60 SRB cytotoxicity screen; format: cell-based; conditions: Homo sapiens; HOP-92, single dose 10 μM; read-out: growth inhibition (GI%)
A498 (renal cancer) = assay: NCI-60 SRB cytotoxicity screen; format: cell-based; conditions: Homo sapiens; A498, single dose 10 μM; read-out: growth inhibition (GI%)
MDA-MB-435 (melanoma) = assay: NCI-60 SRB cytotoxicity screen; format: cell-based; conditions: Homo sapiens, MDA-MB-435, read-out: growth inhibition (GI%);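 note: growth inhibition in percent at a single 10 µM dose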
[7] = test system: A549/ATCC (non-small cell lung cancer); assay: NCI-60 SRB cytotoxicity screen; format: cell-based; conditions: Homo sapiens, single dose 10 μM, read-out: growth inhibition (GI%)
PC-3 (prostate cancer) = assay: NCI-60 SRB cytotoxicity screen; format: cell-based; conditions: PC-3, single dose 10 μM; read-out: growth inhibition (GI%)
[8] = test system: NCI/ADR-RES (ovarian cancer); assay: NCI-60 SRB cytotoxicity screen; format: cell-based; conditions: Homo sapiens, single dose 10 μM, read-out: growth inhibition (GI%)
OVCAR-4 (ovarian cancer) = assay: NCI-60 SRB cytotoxicity screen; format: cell-based; conditions: Homo sapiens; OVCAR-4, single dose 10 μM; read-out: growth inhibition (GI%)
SF-539 (CNS cancer) = assay: NCI-60 SRB cytotoxicity screen; format: cell-based; conditions: Homo sapiens; SF-539, single dose 10 μM; read-out: growth inhibition (GI%)
MOLT-4 (leukemia) = assay: NCI-60 SRB cytotoxicity screen; format: cell-based; conditions: Homo sapiens; MOLT-4, single dose 10 μM; read-out: growth inhibition (GI%)
UO-31 (renal cancer) = assay: NCI-60 SRB cytotoxicity screen; format: cell-based; conditions: Homo sapiens; UO-31, single dose 10 μM; read-out: growth inhibition (GI%)

Row | Structure (SMILES) | inhibition at 10 µM (SK-OV-3 (ovarian cancer)) | inhibition at 10 µM (OVCAR-8 (ovarian cancer)) | inhibition at 10 µM (SN12C (renal cancer)) | inhibition at 10 µM [1] | inhibition at 10 µM (MALME-3M (melanoma)) | inhibition at 10 µM (CAKI-1 (renal cancer)) | inhibition at 10 µM (SF-295 (CNS cancer)) | inhibition at 10 µM (ACHN (renal cancer)) | inhibition at 10 µM (HCT-15 (colon cancer)) | inhibition at 10 µM (U251 (CNS cancer)) | inhibition at 10 µM (786-0 (renal cancer)) | inhibition at 10 µM [2] | inhibition at 10 µM (SW-620 (colon cancer)) | inhibition at 10 µM (UACC-257 (melanoma)) | inhibition at 10 µM (SK-MEL-2 (melanoma)) | inhibition at 10 µM (TK-10 (renal cancer)) | inhibition at 10 µM (OVCAR-5 (ovarian cancer)) | inhibition at 10 µM (SNB-75 (CNS cancer)) | inhibition at 10 µM [3] | inhibition at 10 µM (LOX IMVI (melanoma)) | other results
1 | CCc1cccc2cc(-c3cc(-c4ccc(OC)c(OC)c4)[nH]c(=O)c3C#N)c(Cl)nc12 [Compound 4b, 4-(2-Chloro-8-ethylquinolin-3-yl)-6-(3,4-dimethoxyphenyl)-2-oxo-1,2-dihydropyridine-3-carbonitrile] | < 10% | < 10% | < 10% | < 10% | < 10% | 39.2% | < 10% | < 10% | < 10% | < 10% | < 10% | < 10% | < 10% | < 10% | < 10% | < 10% | < 10% | 29.6% | < 10% | < 10% | inhibition at 10 µM (CCRF-CEM (leukemia)): < 10%; inhibition at 10 µM [4]: < 10%; inhibition at 10 µM (M14 (melanoma)): < 10%; inhibition at 10 µM (HT29 (colon cancer)): < 10%; inhibition at 10 µM [5]: 14.2%; inhibition at 10 µM [6]: 11.3%; inhibition at 10 µM (A498 (renal cancer)): < 10%; inhibition at 10 µM (MDA-MB-435 (melanoma)): < 10%; inhibition at 10 µM [7]: < 10%; melting point: 280 to 282 °C; inhibition at 10 µM (PC-3 (prostate cancer)): < 10%; inhibition at 10 µM [8]: < 10%; inhibition at 10 µM (OVCAR-4 (ovarian cancer)): 14%; inhibition at 10 µM (SF-539 (CNS cancer)): < 10%; inhibition at 10 µM (MOLT-4 (leukemia)): < 10%; inhibition at 10 µM (UO-31 (renal cancer)): < 10%
2 | CCc1cccc2cc(-c3cc(-c4ccc(OC)cc4)[nH]c(=S)c3C#N)c(Cl)nc12 [Compound 5a, 4-(2-Chloro-8-ethylquinolin-3-yl)-6-(4-methoxyphenyl)-2-thioxo-1,2-dihydropyridine-3-carbonitrile] | < 10% | 10.1% | 10.3% | 15.9% | < 10% | 44.7% | 13.8% | < 10% | < 10% | < 10% | < 10% | 17.6% | < 10% | < 10% | < 10% | < 10% | < 10% | 21.6% | 18.1% | < 10% | inhibition at 10 µM (CCRF-CEM (leukemia)): < 10%; inhibition at 10 µM [4]: < 10%; inhibition at 10 µM (M14 (melanoma)): < 10%; inhibition at 10 µM (HT29 (colon cancer)): < 10%; inhibition at 10 µM [5]: 10.3%; inhibition at 10 µM [6]: 36.2%; inhibition at 10 µM (A498 (renal cancer)): < 10%; inhibition at 10 µM (MDA-MB-435 (melanoma)): < 10%; inhibition at 10 µM [7]: < 10%; melting point: 290 to 292 °C; inhibition at 10 µM (PC-3 (prostate cancer)): < 10%; inhibition at 10 µM [8]: < 10%; inhibition at 10 µM (OVCAR-4 (ovarian cancer)): 24.5%; inhibition at 10 µM (SF-539 (CNS cancer)): < 10%; inhibition at 10 µM (MOLT-4 (leukemia)): 12.7%; inhibition at 10 µM (UO-31 (renal cancer)): 19.7%
3 | CCc1cccc2cc(-c3cc(-c4cc(OC)c(OC)c(OC)c4)[nH]c(=S)c3C#N)c(Cl)nc12 [Compound 5c, 4-(2-Chloro-8-ethylquinolin-3-yl)-2-thioxo-6-(3,4,5-trimethoxyphenyl)-1,2-dihydropyridine-3-carbonitrile] | < 10% | 36.7% | 39.7% | 63.3% | < 10% | 69.8% | 31% | 32.5% | 29% | 31% | 27.9% | 34% | 10% | 20.1% | 33% | < 10% | < 10% | < 10% | 52.5% | 38.3% | inhibition at 10 µM (CCRF-CEM (leukemia)): 57.6%; inhibition at 10 µM [4]: 21.8%; inhibition at 10 µM (M14 (melanoma)): 31.2%; inhibition at 10 µM (HT29 (colon cancer)): 20.4%; inhibition at 10 µM [5]: 34.9%; inhibition at 10 µM [6]: 77.4%; inhibition at 10 µM (A498 (renal cancer)): 18.8%; inhibition at 10 µM (MDA-MB-435 (melanoma)): 24.9%; inhibition at 10 µM [7]: 38.1%; melting point: 279 to 281 °C; inhibition at 10 µM (PC-3 (prostate cancer)): 48.9%; inhibition at 10 µM [8]: 28.5%; inhibition at 10 µM (OVCAR-4 (ovarian cancer)): 41.6%; inhibition at 10 µM (SF-539 (CNS cancer)): 29.7%; inhibition at 10 µM (MOLT-4 (leukemia)): 61.2%; inhibition at 10 µM (UO-31 (renal cancer)): 45.2%
